Reference: patent US6979686B1, “Substituted pyrazoles as p38 kinase inhibitors” (Pharmacia Corporation, priority 2001, dated 2005)
Like-named read-outs stand apart in the source and are kept apart here.

Tests used:
[1] = tested on: TNF alpha, BALB/c mice injected with LPS; test: Mouse model of LPS-induced TNF alpha production; assay type: in vivo; details: for mLPS 8 h percent inhibition: head '8 h'
Description: Mouse Model of LPS-induced TNF Alpha Production:
TNF alpha was induced in 10-12 week old BALB/c female mice by tail vein injection with 100 ng lipopolysaccharide (from S. Typhosa) in 0.2 ml saline. One hour later mice were bled from the retroorbital sinus and TNF concentrations in serum from clotted blood were quantified by ELISA.
Efficacy was determined at each time point as percent inhibition of serum TNF levels relative to LPS injected mice that received vehicle only.
In vivo assessment of the ability of the compounds to inhibit LPS-stimulated TNP release in the mouse is shown in the column identified as: • “Mouse LPS Model, % TNF inhib @ dose @ predose time” wherein in the dose is milligram per kilogram (mpk) administered by oral gavage and the predose time indicates the number of hours before LPS challenge when the compound is administered.

[2] = tested on: TNF-α, U937 human histiocytic lymphoma cell line; test: LPS stimulation of TNF production by U937 cells; assay type: cell-based; details: Table 6; U937 cell assay; read-out: U937 IC50
Procedure, shortened: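 U937 cells differentiated 24 h with 20 ng/ml PMA, rested 24-48 h, used at 2 million cells/ml. Compounds in 0.1% DMSO final; LPS (E. coli, 100 ng/ml final) stimulation for 4 h at 37° C. Released TNF-α measured by ELISA; IC50 (μM).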

[3] = biological target: T1, human p38 kinase alpha (Homo sapiens, UniProt Q16539); test: p38 kinase in vitro assay, phosphorylation of biotinylated PHAS-I with 32P-ATP; assay type: biochemical; details: for IC50: read-out: P38 alpha kinase IC50
T1 construct: GST (N, cleaved yes); made in house; host or cells: E. coli DH10B

[4] = Table 6, mouse LPS, dose 30, oral gavage
[5] = 30 mpk oral gavage, −6 h before LPS challenge
[6] = Table 6, mouse LPS, dose not given, oral gavage
[7] = in vitro P38-alpha kinase inhibition

T1 sequence (Q16539 whole entry): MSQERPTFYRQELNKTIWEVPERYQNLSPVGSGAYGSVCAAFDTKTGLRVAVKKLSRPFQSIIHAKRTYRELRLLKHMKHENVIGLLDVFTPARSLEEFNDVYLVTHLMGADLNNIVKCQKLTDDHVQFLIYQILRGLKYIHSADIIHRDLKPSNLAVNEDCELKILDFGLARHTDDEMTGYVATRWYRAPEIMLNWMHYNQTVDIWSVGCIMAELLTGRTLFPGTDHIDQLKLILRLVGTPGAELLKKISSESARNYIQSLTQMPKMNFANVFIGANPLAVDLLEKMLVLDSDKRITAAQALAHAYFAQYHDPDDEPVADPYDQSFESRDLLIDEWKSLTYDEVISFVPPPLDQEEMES

Row | Compound | mLPS 8 h percent inhibition [1, 4] | also measured
1 | CCN(CC)CCn1cc(-c2ccnc(NCc3ccc(F)cc3)c2)c(-c2ccc(F)cc2)n1 [Example A-279, 4-[1-[2-(diethylamino)ethyl]-3-(4-fluorophenyl)-1H-pyrazol-4-yl]-N-[(4-fluorophenyl)methyl]-2-pyridinamine] | 64% | 
2 | OCCn1cc(-c2ccnc(NCc3ccc(F)cc3)c2)c(-c2ccc(F)cc2)n1 [Example A-283, 3 (or 5)-(4-fluorophenyl)-4-[2-[[(4-fluorophenyl)methyl]amino]-4-pyridinyl]-1H-pyrazole-1-ethanol] | −20% | IC50 [2]: 800 nM
3 | Cn1cc(-c2ccnc(F)c2)c(-c2ccc(F)c(F)c2)n1 [Example A-260, 4-[3-(3,4-difluorophenyl)-1-methyl-1H-pyrazol-4-yl]-2-fluoropyridine] | 47% | 
4 | c1cc(-c2c[nH]nc2-c2ccc3c(c2)OCO3)ccn1 [Example A-228, 4-[3-(1,3-benzodioxol-5-yl)-1H-pyrazol-4-yl]pyridine] | 32% | 
5 | OCCNc1cc(-c2c[nH]nc2-c2ccc(F)cc2)ccn1 [Example A-280] | 15% | 
6 | Cn1cc(-c2ccncc2)c(-c2ccc(F)cc2)n1 [Example A-212, 4-[3-(4-fluorophenyl)-1-methyl-1H-pyrazol-4-yl]pyridine] |  | mLPS 8 h percent inhibition ([1]; Table 6, mouse LPS, dose 10, oral gavage): 20%
7 | CCN(CC)CCn1cc(-c2ccnc(F)c2)c(-c2ccc(F)cc2)n1 [Example A-278, N,N-diethyl-3-(4-fluorophenyl)-4-(2-fluoro-4-pyridinyl)-1H-pyrazole-1-ethanamine] | 62% | 
8 | Cn1cc(-c2ccnc(NCCO)c2)c(-c2ccc(F)cc2)n1 [Example A-281, 2-[[4-[3-(4-fluorophenyl)-1-methyl-1H-pyrazol-4-yl]-2-pyridinyl]amino]ethanol] | 22% | 
9 | Cn1cc(-c2ccncc2)c(-c2ccc(F)c(F)c2)n1 [Example A-242, 4-[3-(3,4-difluorophenyl)-1-methyl-1H-pyrazol-4-yl]pyridine] | 95% | 
10 | Cn1cc(-c2ccncc2)c(-c2ccc3c(c2)OCO3)n1 [Example A-231, 4-[3-(1,3-benzodioxol-5-y)-1-methyl-1H-pyrazol-4-yl]pyridine] | 86% | 
11 | Fc1cc(-c2c[nH]nc2-c2ccc(Cl)cc2)ccn1 [Example A-240] | 78% | 
12 | Cn1cc(-c2ccncc2)c(-c2ccc(C(F)(F)F)cc2)n1 [Example A-252, 4-[1-methyl-3-[4-(trifluoromethyl)phenyl]-1H-pyrazol-4-yl]pyridine] | 48% | 
13 | Brc1ccc(-c2n[nH]cc2-c2ccncc2)cc1 [Example A-241, 4-[3-(4-bromophenyl)-1H-pyrazol-4-yl]pyridine] | 79% | 
14 | C#CCn1ncc(-c2ccncc2)c1-c1ccc(F)cc1 [Example A-295, 4-[5-(4-fluorophenyl)-1-(2-propynyl)-1H-pyrazol-4-yl]pyridine] | 94% | 
15 | O=C(NCCCc1[nH]nc(-c2ccc(F)cc2)c1-c1ccncc1)c1ccccc1I [Example B-1159] |  | Mouse LPS Model % TNF inhib @ dose @ predose time [1, 5]: 60% @ 30 mpk @ −6 h; P38 alpha kinase % inhib @ conc. (uM) ([3]; @ 1.0 uM): 66.0% @
16 | CCN(CC)CCn1cc(-c2ccncc2)c(-c2ccc(F)cc2)n1 [Example A-284, N,N-diethyl-3-(4-fluorophenyl)-4-(4-pyridinyl)-1H-pyrazole-1-ethanamine] |  | mLPS 8 h percent inhibition [1, 6]: −1%
17 | N#Cc1cc(-c2c[nH]nc2-c2ccc(F)cc2)ccn1 [Example A-215, 4-[3-(4-fluorophenyl)-1H-pyrazol-4-yl]-2-pyridinecarbonitrile] | 38% | 
18 | C#CCNc1[nH]nc(-c2ccc(F)cc2)c1-c1ccncc1 [Example A-288, 5-(4-fluorophenyl)-N-2-propynyl-4-(4-pyridinyl)-1H-pyrazol-3-amine] | 40% | 
19 | Fc1ccc(-c2n[nH]c(NCCCN3CCOCC3)c2-c2ccncc2)cc1 [Example A-286, N-[5-(4-fluorophenyl)-4-(4-pyridinyl)-1H-pyrazol-3-yl]-4-morpholinepropanamine] | 29% | 
20 | Cc1ccc(F)cc1S(=O)(=O)NC(C)c1[nH]nc(-c2ccc(F)cc2)c1-c1ccncc1 (centres unmarked) [Example B-0451] |  | inhibition in vivo at 30 mg/kg ([1]; Mus musculus, 30 mpk oral gavage, −5 h before LPS challenge, read-out: Mouse LPS Model % TNF inhib @ dose @ predose time): 42%; IC50 [3, 7]: 71 nM

Row | Compound | mLPS 8 h percent inhibition [1, 4] | also measured
21 | OCCn1cc(-c2ccnc(NCc3ccc(F)cc3)c2)c(-c2ccc(F)cc2)n1 [Example A-289, 3-(4-fluorophenyl)-4-[2-[[(4-fluorophenyl)methyl]amino]-4-pyridinyl]-1H-pyrazole-1-ethanol] | 44% | IC50 [2]: 140 nM
22 | CN(C)CCCNc1[nH]nc(-c2ccc(F)cc2)c1-c1ccncc1 [Example A-287, N′-[5-(4-fluorophenyl)-4-(4-pyridinyl)-1H-pyrazol-3-yl]-N,N-dimethyl-1,3-propanediamine] | −24% | 
23 | OCCn1ncc(-c2ccnc(NCc3ccc(F)cc3)c2)c1-c1ccc(F)cc1 [Example A-290, 5-(4-fluorophenyl)-4-[2-[[(4-fluorophenyl)methyl]amino]-4-pyridinyl]-1H-pyrazole-1-ethanol] | 4% | 
24 | COCC(=O)N1CCC(c2[nH]nc(-c3ccc(F)cc3)c2-c2ccncc2)CC1 [Example B-1368] |  | inhibition in vivo at 30 mg/kg ([1]; Mus musculus, 30 mpk oral gavage, predose time not printed ("@ -"), read-out: Mouse LPS Model % TNF inhib @ dose @ predose time): 44%; IC50 ([3]; in vitro P38-alpha kinase): 31 nM
25 | CN(C)CCn1cc(-c2ccnc(NCc3ccc(F)cc3)c2)c(-c2ccc(F)cc2)n1 [Example A-274, 4-[1-[2-(dimethylamino)ethyl]-3-(4-fluorophenyl)-1H-pyrazol-4-yl]-N-[[4-fluorophenyl)methyl]-2-pyridinamine] | 21% | 
26 | CNC(=O)NC(C)c1[nH]nc(-c2ccc(F)cc2)c1-c1ccncc1 (centres unmarked) [Example B-0585] |  | inhibition in vivo at 30 mg/kg ([1]; Mus musculus, 30 mpk oral gavage, −6 h before LPS challenge, read-out: Mouse LPS Model % TNF inhib @ dose @ predose time): 50%; IC50 [3, 7]: 830 nM
27 | Clc1ccc(-c2n[nH]cc2-c2ccncc2)cc1Cl [Example A-297, 4-[3-(3,4-dichlorophenyl)-1H-pyrazol-4-yl]pyridine] | 89% | 
28 | CS(=O)(=O)N1CCC(c2[nH]nc(-c3ccc(F)cc3)c2-c2ccncc2)CC1 [Example B-1376] |  | Mouse LPS Model % TNF inhib @ dose @ predose time [1, 5]: 3.0% @ 30 mpk @ −6 H; IC50 ([3]; in vitro P38-alpha kinase): 9 nM
29 | Fc1ccc(-c2n[nH]c(NCCN3CCOCC3)c2-c2ccncc2)cc1 [Example A-218, N-[5-(4-fluorophenyl)-4-(4-pyridinyl)-1H-pyrazol-3-yl]-4-morpholineethanamine] | 18% | 
30 | Fc1ccc(-c2nn(CCN3CCOCC3)cc2-c2ccncc2)cc1 [Example A-216, 4-[2-[3-(4-fluorophenyl)-4-(4-pyridinyl)-1H-pyrazol-1-yl]ethyl]morpholine] | 27% | 
31 | CN(C)CCn1cc(-c2ccncc2)c(-c2ccc(F)cc2)n1 [Example A-261, 3-(4-fluorophenyl)-N,N-dimethyl-4-(4-pyridinyl)-1H-pyrazole-1-ethanamine] | 48% | 
32 | C#CCn1cc(-c2ccncc2)c(-c2ccc(F)cc2)n1 [Example A-294, 4-[3-(4-fluorophenyl)-1-(2-propynyl)-1H-pyrazol-4-yl]pyridine] | 61% | 
33 | Fc1ccc(-c2n[nH]cc2-c2ccnc(F)c2)cc1 [Example A-249, 2-fluoro-4-[3-(4-fluorophenyl)-1H-pyrazol-4-yl]pyridine] | 73% | 
34 | Fc1ccc(-c2n[nH]cc2-c2ccncc2)cc1F [Example A-239, 4-[3-(3,4-difluorophenyl)-1H-pyrazol-4-yl]pyridine] | 51% | 
35 | OCCCNc1cc(-c2c[nH]nc2-c2ccc(F)cc2)ccn1 [Example A-282, 3-[[4-(3-(4-fluorophenyl)-1H-pyrazol-4-yl]-2-pyridinyl]amino]-1-propanol] | 30% | 
36 | Fc1ccc(-c2n[nH]cc2-c2ccnc3ccccc23)cc1 [Example A-291] | 36% | 
37 | Cn1cc(-c2ccncc2)c(-c2cccc(F)c2)n1 [Example A-229, 4-[3-(3-fluorophenyl)-1-methyl-1H-pyrazol-4-yl]pyridine] |  | mLPS 8 h percent inhibition [1, 6]: 76%
38 | Fc1ccc(-c2n[nH]cc2-c2ccnc(NC3CCNCC3)c2)cc1 [Example A-277, 4-[3-(4-fluorophenyl)-1H-pyrazol-4-yl]-N-4-piperadinyl-2-pyridinamine] | 33% | 
39 | Cc1cccc(-c2nn(C)cc2-c2ccnc(C)c2)c1 [Example A-235, 2-methyl-4-[1-methyl-3 (or 5)-(3-methylphenyl)-1H-pyrazol-4-yl]pyridine] |  | inhibition in vivo at 30 mg/kg ([1]; Table 6, mouse LPS, 1 h before LPS, 30 mpk, oral gavage, read-out: mLPS 1 h, 30 mpk percent inhibition): 56%
40 | Cn1cc(-c2ccncc2)c(-c2ccc(I)cc2)n1 [Example A-251, 4-[3-(4-iodophenyl)-1-methyl-1H-pyrazol-4-yl]pyridine] |  | mLPS 8 h percent inhibition [1, 6]: 32%
